Measured values taken from patent US20120082736A1, “Small-molecule TNF modulator to reduce the side effects of chemotherapy and radiotherapy” (GeneBlue Corporation, priority 2010, published 2012).

How the values were obtained:
BDF1 mice = experiment: Cisplatin side-effect time course / MTD, ip daily ×5 (Example 1); type: in vivo; conditions: ip daily ×5, BDF1 mice
Description: First, 0.25 mL of 0.2 mg/mL cisplatin (eq to 2.5 mg/kg) in saline was injected ip, daily ×5, in BDF1 mice. Saline was used as a control. Two mice were used per group and sacrificed on day 0 (control), 2, 4, 7, 9, 11, and 15. In addition, 2 BDF1 mice were injected with a higher dose, 0.25 mL of 0.4 mg/mL cisplatin (eq to 5 mg/kg), daily ×5. Unfortunately, for the higher dose, 1 mouse died on day 7 and the second was euthanized on day 14. This confirms the MTD of cisplatin was <5 mg/kg by ip daily ×5 as shown in the MTD study.
To further narrow down the exact day between day 4 and 7, a follow-up animal study was conducted employing cisplatin at 2.5 mg/kg and the mice were sacrificed on day 0 (control), 5, 6, and 7 (2 mice per point).

[1] = tested on: BDF1 female mice treated with cisplatin; experiment: Effect of pretreatment on BUN/creatinine, AST/ALT, WBC/platelet in blood of cisplatin-treated mice (Example 2); type: in vivo; conditions: blood day 6; for platelet count, effect of pretreatment: vs Gp 1 (Control)
Description: Gp 1: medium (saline). Gp 2: saline followed by cisplatin (2.5 mg/kg) 30 min later. Gp 3: UTL-5g (15 mg/kg) followed by cisplatin (2.5 mg/kg) 30 min later. Gp 4: UTL-5g (30 mg/kg) followed by cisplatin (2.5 mg/kg) 30 min later. Gp 5: UTL-5g (60 mg/kg) followed by cisplatin (2.5 mg/kg) 30 min later. Gp 6: amifostine (200 mg/kg) followed by cisplatin (2.5 mg/kg) 30 min later; Gp 7: saline followed by cisplatin (5 mg/kg) 30 min later. Gp 1-Gp 6 were daily ×5, but Gp 7 was by single dose on day 0 only. StDev is shown for each Gp (n=5 for each group except for Gp 7, n=3). ** two-tailed p<0.005 vs medium control by Student's t-test.
(§1) Gp 1: medium (saline). Gp 2: saline followed by cisplatin (2.5 mg/kg) 30 min later. Gp 3: UTL-5g (15 mg/kg) followed by cisplatin 30 min later. Gp 4: UTL-5g (30 mg/kg) followed by cisplatin (2.5 mg/kg) 30 min later. Gp 5: UTL-5g (60 mg/kg) followed by cisplatin (2.5 mg/kg) 30 min later. Gp 6: amifostine (200 mg/kg) followed by cisplatin (2.5 mg/kg) 30 min later. Gp 7: saline followed by cisplatin (5 mg/kg) 30 min later. Gp 1-Gp 6 were daily ×5, but Gp 7 was by single dose on day 0 only. StDev is shown for each Gp (n=5 for each group except n=4 for Gp 7). * P<0.05, ** p<0.005 vs. medium control (Gp 1) by Student's t-test (two-tailed).
as §1, with “p<0.005, *** p<0.0005” for “p<0.005”, “control” for “control (Gp 1)”
BDF1 female mice (average wt ˜20 g/mouse) were randomly divided into the following groups (5 mice per group) and each treated daily ×5 (starting from day 0) by ip injection (0.25 mL/mouse), except in Gp 7, each was treated by a single dose ip injection (0.25 mL/mouse) on day 0 only, as described below • Gp 1: medium (saline) followed by medium (saline) 30 min later • Gp 2: medium (saline) followed by cisplatin (2.5 mg/kg) 30 min later • Gp 3: UTL-5g (15 mg/kg) followed by cisplatin (2.5 mg/kg) 30 min later • Gp 4: UTL-5g (30 mg/kg) followed by cisplatin (2.5 mg/kg) 30 min later • Gp 5: UTL-5g (60 mg/kg) followed by cisplatin (2.5 mg/kg) 30 min later • Gp 6: amifostine (200 mg/kg) followed by cisplatin (2.5 mg/kg) 30 min later • Gp 7: medium (saline) followed by cisplatin (5 mg/kg) 30 min later (single dose on Day 0 only)
Preparation of the test samples are described below: • Cisplatin: Cisplatin was dissolved in saline (0.2 and 0.4 mg/mL in saline) for 2.5 and 5 mg/kg ip injection. • UTL-5g: The stock solution of UTL-5g was first dissolved in DMSO and equal volume of Cremophor/propylene glycol (60/40 v/v) was added to make a stock solution. Immediately before the injection, saline was added to this temporary solution at a 90:10 v/v ratio and mixed thoroughly. Three concentrations for ip injection were prepared (1.25, 2.5, and 5 mg/mL) so that the doses are equivalent to 15, 30, and 60 mg/kg with a 0.25 mL injection. • Amifostine: The stock solution of amifostine was dissolved in saline to the desired concentration (16 mg/mL) for the 200 mg/kg injection.
Cardiac puncture was used to obtain blood from each mouse on day 6. To assess liver/kidney protection by UTL-5g, all blood samples were analyzed for BUN, creatinine, AST, and ALT by the chemistry lab at Henry Ford Health System. Unopette® (Becton Dickinson, Franklin Lakes, N.J.) diluting systems and a hemocytometer were used to assess the effect of UTL-5g on WBC and platelet counts in blood.

TNF-α = TNF-α levels in plasma of cisplatin-treated mice (commercial assay kit, eBioscience); type: in vivo; conditions: cisplatin 2.5 mg/kg ip daily ×5; pooled plasma day 6
Description: FIG. 5. Effect of UTL-5g on TNF-α levels in plasma for mice treated with cisplatin. Gp 1, medium control (saline) only; Gp 2, saline followed by cisplatin (2.5 mg/kg) 30 min later; Gp 3, UTL-5g (15 mg/kg) followed by cisplatin 30 min later; Gp 4, UTL-5g (30 mg/kg) followed by cisplatin 30 min later; Gp 5, UTL-5g (60 mg/kg) followed by cisplatin 30 min later. Y axis represents the relative levels of TNF-α assuming 0% for Gp 1 (Control). Level of TNF-α on the figure is based on the average of 2 readings. […]
Using the samples from the same animal study, TNF-α levels in plasma were analyzed. […]

[2] = within 1 h, cited from earlier work
tumor cells = conditions: animal data; cited from earlier work
[3] = cisplatin 2.5 mg/kg ip daily ×5 or 5 mg/kg single dose
[4] = cisplatin 5 mg/kg ip single dose day 0 (Gp 7) vs Control (Gp 1)
[5] = ip 30 min before cisplatin 2.5 mg/kg, daily ×5, UTL-5g 15, 30, 60 mg/kg, amifostine 200 mg/kg

SMILES | MTD of cisplatin (BDF1 mice) [mg/kg] | ALT levels, effect of cisplatin [1, 3] | AST levels, effect of cisplatin [1, 3] | BUN levels, effect of cisplatin [1, 3] | creatinine, effect of cisplatin [1, 3] | WBC count, effect of cisplatin [1, 4] | platelet count, effect of cisplatin [1, 4] | TNF-α in plasma, effect of cisplatin (TNF-α) | BUN levels, effect of pretreatment [1, 5] | creatinine, effect of pretreatment [1, 5] | platelet count, effect of pretreatment [1, 5] | platelet count, effect of pretreatment ([1]; ip 30 min before cisplatin 2.5 mg/kg, daily ×5, UTL-5g 15, 30, 60 mg/kg, amifostine 200 mg/kg, listed as Amifostine) | cleared from the plasma, share of the peak concentration ([2]; amifostine) [%] | metabolite cleared from the plasma, share of the peak concentration ([2]; metabolite of amifostine) [%] | tumor-protective effect (tumor cells)
N.N.[Cl][Pt][Cl] [cisplatin, cis-dichlorodiammine platinum, reference compound] | < 5 | elevated by cisplatin | elevated by cisplatin | elevated by cisplatin in a dose-dependent manner | Essentially the same results | lower WBC count as compared to Control | did decrease platelet count significantly | elevated by cisplatin | – | – | – | – | – | – | –
NCCCNCCSP(=O)(O)O [amifostine, reference compound] | – | – | – | – | – | – | – | – | essentially the same reduction | Essentially the same results | statistically significant decrease on platelet count | does not have similar positive effect on platelet production | 95 | 50 | may have tumor-protective effect
